Like-named read-outs stand apart in the source and are kept apart here.
Assays:
[1] = molecular target: T1, Butyrylcholinesterase (BChE) (Equus caballus, UniProt P81908); experiment: biochemical
T1 construct: purchased Sigma c-7512
Procedure: The following components were utilised:
Phosphate Buffer (0.1M, pH 7.4)
Made up to 500 ml with distilled H2 O, pH 7.4
1 ml of enzyme solution (i), was incubated with 2 ml PDS for 60 minutes at 0° C.
Components of the assay blank, controls and test solutions are provided below:
0.9 ml phosphate buffer (0.1M, pH 7.4)
0.85 ml phosphate buffer (0.1 M, pH 7.4)
0.05 ml Acetylthiocholine (5.2 mM)
(§1) 0.8 ml phosphate buffer (0.1M, pH 7.4)
Control was taken as 100%. Inhibitor was calculated as a percentage of control. A graph of Log of inhibitor conc. versus % control was plotted and IC50 values calculated by interpolation.

[2] = molecular target: T2, Acetylcholinesterase (AChE) (Rattus norvegicus, UniProt P37136); experiment: biochemical; type: biochemical, Male Rats (Sprague Dawley), brain
T2 construct: The brain was removed and homogenised; from tissue; host or cells: rat brain (male Sprague Dawley), Triton X100 detergent supernatant of the EDTA-buffer pellet
T2 sequence (P37136 32-614): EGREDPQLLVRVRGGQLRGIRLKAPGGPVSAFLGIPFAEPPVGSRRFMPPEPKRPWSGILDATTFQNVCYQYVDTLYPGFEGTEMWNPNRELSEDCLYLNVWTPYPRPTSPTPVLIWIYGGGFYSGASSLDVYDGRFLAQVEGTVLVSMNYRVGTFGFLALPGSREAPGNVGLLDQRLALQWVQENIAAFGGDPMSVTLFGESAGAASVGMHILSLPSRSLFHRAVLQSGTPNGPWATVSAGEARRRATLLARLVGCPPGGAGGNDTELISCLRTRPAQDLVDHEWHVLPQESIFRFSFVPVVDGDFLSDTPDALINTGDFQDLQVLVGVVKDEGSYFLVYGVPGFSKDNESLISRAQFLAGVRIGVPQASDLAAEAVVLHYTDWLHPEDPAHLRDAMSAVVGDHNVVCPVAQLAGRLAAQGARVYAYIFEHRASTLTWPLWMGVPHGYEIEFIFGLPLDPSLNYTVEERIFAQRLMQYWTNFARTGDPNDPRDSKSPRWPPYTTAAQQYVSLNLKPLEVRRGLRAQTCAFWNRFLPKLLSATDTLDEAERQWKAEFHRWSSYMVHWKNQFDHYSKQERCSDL
Procedure: (i) Enzyme Source for AChE
5 Male Rats (Sprague Dawley) weighing approx 250 g were killed by CO2 overdose and cervical dislocation.
The brain was removed and homogenised (9 strokes at 840 rpm with 4 volumes of phosphate buffer pH 7.4+10 mM (EDTA) and centrifuged at 27,000 g for 30 minutes.
The supernatant was discarded and the pellet resuspended in phosphate buffer with 10 mM EDTA+1- Triton X100 (2 ml/g wet weight). The crude homogenate was centrifuged at 27,000 g for 30-40 minutes.
The pellet was discarded and the supernatant was dispensed into 0.5 ml aliquots and stored at -20° C. until required.
Phosphate Buffer (0.1M. pH 7.4)
Made up to 500 ml with distilled H2 O, pH 7.4.
0.5 ml aliquots of brain (enzyme solution) as prepared above were thawed out. 2 ml of phosphate buffer was added to each aliquot. 2 ml of the enzyme solution was incubated with 2 ml PDS for 60 minutes at 0° C. The composition of blank, control and test solutions are given below:
0.9 ml phosphate buffer (0.1 M, pH 7.4)
0.85 ml phosphate buffer (0.1M, pH 7.4)
0.05 ml acetylthiocholine (5.2 mM)
as §1
0.05 ml Acetylthiocholine 5.2 mM
Change in absorbance was measured at 30 second intervals for 3 minutes at […]. The control was taken as 100%. Inhibitor was calculated as a percentage of the control. A graph of Log of inhibitor conc. versus % control was plotted and IC5. values calculated by interpolation.

[3] = test system: noradrenaline (NA) uptake; experiment: Monoamine Uptake Inhibition Assay, noradrenaline (synaptosomal preparation); type: biochemical, rat (Sprague Dawley)
Procedure: (§2) One male rat (Sprague Dawley) weighing approx. 200-250 g was sacrificed by cervical dislocation. The brain was dissected out and the cerebellum discarded. The brain was then weighed and 10 ml ice cold sucrose (0.32M) added per gram tissue. […] The pellet was discarded and the supernatant retained (crude synaptosomal preparation).
(§3) All tubes were set up in triplicate. […] 100 μl of the prepared synaptosomal preparation was added to each tube and incubated for 5 minutes in a shaking water bath at 37° C. Any reaction was stopped by plunging the tubes into an ice water bath. ^3 H NA (10^-7 M) or ^3 H 5-HT ([…]) was added to each tube and incubated for 5 minutes in a shaking water bath at 37° C. Any reaction was stopped by plunging the tubes into an ice-water bath. Accumulated monoamines were collected using a Brandell Cell Harvester under mild vacuum. Filters were rinsed (2×) using 4 ml of ice-cold 0.9% saline. Scintillation fluid was added (4 ml/tube). Radioactivity was measured on a scintillation counter.
(§4) Non-specific values were subtracted from total values. The control was taken as 100%. Drug effects were calculated as a percentage of control inhibitor value. A graph of log of drug concentration versus % control was plotted and IC50 values were calculated by interpolation.

5-HT (serotonin) uptake = type: biochemical, rat (Sprague Dawley)
Procedure: as §2, §3, §4

[4] = not believed to be irreversible in nature; cited from earlier work
[5] = Table 1, form SALT, ±SEM, n = 5, read-out: IC50 BChE
[6] = Table 1, form BASE, ±SEM, n = 5, read-out: IC50 AChE
[7] = Table 1, form SALT, ±SEM, n = 5, read-out: IC50 AChE
[8] = Table 1, form BASE, n = 5, read-out: IC50 NA UPTAKE
[9] = Table 1, form SALT, n = 5, read-out: IC50 NA UPTAKE
[10] = Table 1, form BASE, n = 5, read-out: IC50 5HT UPTAKE
[11] = Table 1, form SALT, n = 5, read-out: IC50 5HT UPTAKE
[12] = Table 3, read-out: NA UPTAKE INHIBITION
[13] = Table 3, read-out: 5-HT UPTAKE INHIBITION

T1 sequence (P81908 whole entry): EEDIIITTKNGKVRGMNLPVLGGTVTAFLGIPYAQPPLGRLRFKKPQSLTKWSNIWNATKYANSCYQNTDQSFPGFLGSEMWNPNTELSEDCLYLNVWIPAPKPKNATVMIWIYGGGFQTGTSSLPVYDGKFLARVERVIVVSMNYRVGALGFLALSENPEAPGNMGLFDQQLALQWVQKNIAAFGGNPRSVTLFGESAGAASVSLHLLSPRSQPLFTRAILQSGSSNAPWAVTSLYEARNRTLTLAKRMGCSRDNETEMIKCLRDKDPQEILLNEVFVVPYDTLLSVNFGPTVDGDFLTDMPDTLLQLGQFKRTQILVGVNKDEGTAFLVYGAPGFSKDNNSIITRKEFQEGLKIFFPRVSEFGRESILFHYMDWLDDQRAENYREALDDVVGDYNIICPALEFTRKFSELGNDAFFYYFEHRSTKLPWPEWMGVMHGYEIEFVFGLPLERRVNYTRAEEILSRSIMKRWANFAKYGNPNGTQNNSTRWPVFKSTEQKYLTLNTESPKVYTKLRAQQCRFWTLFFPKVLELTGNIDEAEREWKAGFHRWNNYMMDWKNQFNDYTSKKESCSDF

| SMILES | IC50 [1, 5] | IC50 [2, 6] | IC50 [2, 7] | IC50 [3, 8] | IC50 [3, 9] | IC50 (5-HT (serotonin) uptake; [10]) | IC50 (5-HT (serotonin) uptake; [11]) | IC50 ([1]; Table 1, form BASE, ±SEM, n = 5, read-out: IC50 BChE) | BChE TACRINE RATIO [1] | IC50 ([1]; Table 2, read-out: BChE IC50) | AChE TACRINE RATIO [2] | IC50 ([2]; Table 2, read-out: AChE IC50) | NA UPTAKE INHIBITION TACRINE RATIO [3] | IC50 [3, 12] | 5-HT UPTAKE INHIBITION TACRINE RATIO (5-HT (serotonin) uptake) | IC50 (5-HT (serotonin) uptake; [13]) | side effect [4] |
| --- | --- | --- | --- | --- | --- | --- | --- | --- | --- | --- | --- | --- | --- | --- | --- | --- | --- |
| COc1ccc2c(c1)CCCc1c-2nc2ccccc2c1N [Compound 1, 13-Amino-1,2 dihydro-5-methoxy[1H] benz [7] annuleno [5,4-b] quinoline] | 34.4 µM | 68.8 µM | 17.4 µM | 3.6 µM | 1.8 µM | 0.7 µM | 0.02 µM |  |  |  |  |  |  |  |  |  |  |
| Nc1c2c(nc3ccccc13)-c1ccccc1CC2 [Compound 3, 7 Amino-5,6-dihydro-benz-[c]-acridine] | 3.8 µM | 37.4 µM | 7.8 µM | 12.1 µM | 13.2 µM | 4.6 µM | 2 µM |  |  |  |  |  |  |  |  |  |  |
| COc1cccc2c1CCc1c-2nc2ccccc2c1N [Compound 4, 7-Amino-5,6-dihydro-4-methoxybenz-[c]-acridine] | 1.9 µM | 47.5 µM | 17.1 µM | 1.4 µM | 12.2 µM | 5.8 µM | 2.1 µM | 10.3 µM |  |  |  |  |  |  |  |  |  |
| Nc1c2c(nc3ccccc13)-c1ccc(Cl)cc1CC2 [Compound 5, 7-Amino-5,6-dihydro-3-chlorobenz-[c]-acridine] | 7.1 µM | 144 µM | 17.9 µM | 4.1 µM | 6.1 µM | 14.3 µM | 5.2 µM |  |  |  |  |  |  |  |  |  |  |
| Nc1c2c(nc3ccccc13)-c1ccccc1CCC2 [Compound 6, 8-Amino-6,7-dihydro-5H-benzo-[6, 7] cyclohepta [1,2-b] quinoline] | 4 µM | 329 µM | 17.5 µM |  | 1.9 µM | 4.7 µM | 1 µM |  |  |  |  |  |  |  |  |  |  |
| Nc1c2c(nc3ccc(F)cc13)CCC2 [Compound 11, 9-Amino-7-fluoro-2,3-dihydro-1H-cyclopenta-[b] quinoline] |  |  |  |  |  |  |  |  | 0.033 | 0.75 µM | 0.650 | 0.12 µM | 0.558 | 12 µM | 2.054 | 3.7 µM |  |
| Nc1c2c(nc3c(O)cccc13)CCC2 [Compound 12, 9-Amino-5-hydroxy-2,3-dihydro-1H-cyclopenta [b] quinoline] |  |  |  |  |  |  |  |  | 0.050 | 0.5 µM | 0.078 | 1 µM | 9.571 | 0.7 µM | 0.524 | 14.5 µM |  |
| Nc1c2c(nc3c(F)cccc13)CCC2 [Compound 13, 9-Amino-5-fluoro-2,3-dihydro-1H-cyclopenta-[1,2-b] quinoline] |  |  |  |  |  |  |  |  | 0.093 | 0.27 µM | 0.269 | 0.29 µM | 9.571 | 0.7 µM | 0.181 | 42 µM |  |
| Nc1c2c(nc3cccc(F)c13)CCC2 [Compound 14, 9-Amino-8-fluoro-2,3-dihydro-1H-cyclopenta-[b] quinoline] |  |  |  |  |  |  |  |  | 0.017 | 1.51 µM | 1.000 | 0.078 µM | 2.030 | 3.3 µM | 0.177 | 43 µM |  |
| Nc1c2c(nc3cc(F)ccc13)CCC2 [Compound 15, 9-amino-6-fluoro-2,3-dihydro-1H-cyclopenta [b] quinoline] |  |  |  |  |  |  |  |  | 0.610 | 0.041 µM | 1.219 | 0.064 µM | 9.571 | 0.7 µM | 0.345 | 22 µM |  |
| Nc1c2c(nc3cccc(Cl)c13)CCC2 [Compound 16, 9-Amino-8-chloro-2,3-dihydro-1H-cyclopenta[b]quinoline] |  |  |  |  |  |  |  |  | 0.047 | 0.53 µM | 0.557 | 0.14 µM | 3350.000 | 0.002 µM | 0.195 | 39 µM |  |
| Nc1c2c(nc3ccc(Cl)cc13)CCC2 [Compound 19, 9-Amino-7-chloro-2,3-dihydro-1H-cyclopenta-[b] quinoline] |  |  |  |  |  |  |  |  | 0.019 | 1.32 µM | 0.060 | 1.3 µM | 2.481 | 2.7 µM | 1.086 | 7 µM |  |
| Nc1c2c(nc3c(Cl)cccc13)CCC2 [Compound 22, 9-Amino-5-chloro-2,3-dihydro-1H-cyclopenta[b] quinoline] |  |  |  |  |  |  |  |  | 0.002 | 14.5 µM | 0.022 | 3.5 µM | 2.161 | 3.1 µM | 0.073 | 104 µM |  |
| Nc1c2c(nc3ccccc13)CCC2 [Compound 29, 9-Amino-2,3-dihydro-[1H ]-cyclopenta-[b]-quinoline] |  |  |  |  |  |  |  |  | 0.481 |  | 1.393 | 0.056 µM | 11.167 | 0.6 µM | 0.362 | 21 µM |  |
| Nc1c2c(nc3ccccc13)CCCC2 [TACRINE, reference compound] |  |  |  |  |  |  |  |  |  |  |  |  |  | 6.7 µM |  |  | liver damage |

Reference: US6130228A, “Polycyclic compounds” (priority 1995, dated 2000)
